Source: patent US10793590B2, “Antifungal compounds” (President and Fellow of Harvard College, priority 2016, dated 2020)
Converted amounts (≈) assume the structure as drawn.

Columns and labels:
[1] = test system: Candida albicans; test: Liquid broth minimum inhibitory concentration; format: cell-based; details: YPD media, 30° C., OD600 at 14 h, 1% DMSO, read-out: MIC against Candida albicans
Experimental: (§1) Determination of minimum inhibitory concentration: Fresh DMSO solutions of selvarmicin and nystatin were prepared as serial dilutions and dispensed into clear flat-bottom 96-well plates in four replicates. A starting inoculum of the appropriate test strain in media was added to each well to yield a final concentration of 1% DMSO by volume. The plates were incubated at 30° C. with shaking at 200 rpm. Growth was assayed by OD600 readings taken on a M5 plate reader (Molecular Devices). For E. coli, B. subtilis, and M. luteus, the starting inoculum consisted of an overnight culture in LB diluted into LB media at 10 μL/mL and final OD readings were taken at 22 h. For C. albicans and S. cerevisiae, the starting inoculum consisted of an overnight culture in YPD media diluted to an OD600 of 0.05 in YPD media and final OD readings were taken at 14 h. For T. harzianum and A. fumigatus, the starting inoculum consisted of a stock of concentrated conidia diluted into potato dextrose broth at 2 uL/mL and final OD readings were taken at 22 h. Using Prism (GraphPad), the OD data were normalized and fit to a Gompertz function, from which MIC values were extracted.
(§2) Selvamicin's improved solubility, despite its lack of charged carboxylate and ammonium groups, is probably contributed by its second sugar moiety.

[2] = test system: Candida albicans K1; test: Neutropenic mouse disseminated candidiasis model (Example 8); format: in vivo; details: 80 mg/kg single intraperitoneal dose 2 h after infection, read 8 h after therapy
Experimental: (§3) Selvamicin was tested in the neutropenic mouse disseminated candidiasis model. Briefly, mice were infected with an inoculum of 5.70 log 10 cfu/ml of Candida albicans K1. Two hours after infection, the mice were administered either saline or selvamicin at 80 mg/kg via the intraperitoneal route. Eight hours after therapy, the burden of Candida albicans in mouse kidneys was measured by viable plate counts of organ homogenates.

[3] = Solubility determination; format: physicochemical; details: HEPES buffer, aqueous buffer, thermodynamic from solid; 5 mM HEPES pH 7.4, 22° C., UV-vis absorbance
Experimental: Solubility determination: Solubility for selvamicin and nystatin was measured with minor modifications from a previously reported protocol. 1 Briefly, in microcentrifuge tubes, 20 μL […] HEPES (pH=7.4) was added to 2.5 mg of selvamicin and of nystatin and the resulting suspensions were vortexed vigorously for 30 min at 22° C. The tubes were centrifuged, the resulting supernatants were diluted in HEPES buffer, and concentrations were determined by UV-vis absorbance (306 nm for nystatin and 335 nm for selvamicin).

[4] = Isothermal calorimetry sterol binding assay; details: 150 μM polyene, POPC LUVs with 11 mol % ergosterol, 25° C.
Experimental: Isothermal Calorimetry Sterol Binding Assay:
Large unilamellar vesicle (LUV) preparation: In a glass vial, a 25 mg/mL solution of palmitoyl oleoyl phosphatidylcholine (POPC) in chloroform (0.96 mL, Avanti Polar Lipids) was mixed with a freshly prepared 4 mg/mL solution of the appropriate sterol (ergosterol or cholesterol. Aldrich) in chloroform (0.35 mL). The sterol solution was omitted for preparation of sterol-free POPC LUVs. The resulting solution was evaporated to dryness in vacuo to yield a lipid film, which was placed under high vacuum for at least 5 h. To this film was added 1 mL 5 mM HEPES (pH adjusted to 7.4 with KOH) and the resulting suspension was vortexed for 3 min. This lipid suspension was loaded into a syringe and passed through a 0.1 μM filter (Whatman) 21 times using an Avanti Polar Lipids Mini-Extruder to yield an LUN suspension (32 mM POPC, 11 mol % sterol; assumed no loss during extrusion).
Isothermal calorimetry (ITC) experiments: Solutions of polyene (150 μM selvamicin or nystatin) in 1% DMSO/5 mM HEPES (pH=7.4) were prepared by dilution from a 1.5 mM solution in DMSO. 8 mM POPC LUV suspensions in 1% DMSO/5 mM HEPES (pH=7.4) were prepared by dilution of the above LUV suspensions with HEPES buffer and DMSO. […]

[5] = test system: M. luteus; test: Liquid broth activity testing against bacteria; format: cell-based; details: LB media, OD at 22 h
Experimental: as §1, §2

[6] = test system: B. subtilis; test: Liquid broth activity testing against bacteria; format: cell-based; details: LB media, OD at 22 h
Experimental: as §1, §2

[7] = test system: E. coli; test: Liquid broth activity testing against bacteria; format: cell-based; details: LB media, OD at 22 h
Experimental: as §1, §2

[8] = Animal toxicity in neutropenic mouse disseminated candidiasis model (Example 8); format: in vivo; details: 80 mg/kg intraperitoneal, neutropenic mice
Experimental: as §3

[9] = test system: C. albicans; test: Neutropenic mouse disseminated candidiasis model (Example 9); format: in vivo; details: 20 mg/kg or 80 mg/kg intraperitoneal
Experimental: (§4) Selvamicin was tested in the neutropenic mouse disseminated candidiasis model. Mice were infected with an inoculum of C. albicans, C. glabrata, and C. auris. After infection, the mice were administered either saline or selvaimicin at 20 mg/kg or 80 mg/kg via an intraperitoneal route. After therapy, the burden of Candida albicans in mouse kidneys was measured by viable plate counts of organ homogenates.

[10] = test system: C. auris; test: as above; format: in vivo; details: 20 mg/kg or 80 mg/kg intraperitoneal
Experimental: as §4

[11] = test system: C. glabrata; test: as above; format: in vivo; details: 20 mg/kg or 80 mg/kg intraperitoneal
Experimental: as §4

## CCC1OC(=O)CC[C@@H](O)[C@H](O)C[C@H](O)C[C@]2(O)C[C@H](O)[C@](C)(O)C(CC(O[C@@H]3O[C@H](C)[C@@H](O)[C@H](O)[C@@H]3O)/C=C/C=C/C=C/C=C/C=C/C(C)C(O[C@H]3C[C@@H](O)[C@@H](OC)[C@H](C)O3)C1C)O2 (stereo partly shown) [Selvamicin]
[1]
  MIC: 23 µM (≈ 21.4 µg/mL)
[2]
  Efficacy: burden of Candida albicans in mouse kidneys: demonstrated efficacy in preventing Candida albicans growth
[3]
  solubility at 30 min: 2300 µM (≈ 2140 µg/mL)
[4]
  Binding to ergosterol-containing vesicles (ITC, heats evolved): no evidence for binding
[5]
  Activity against Gram-positive bacteria (M. luteus): No activity was detected
[6]
  Activity against Gram-positive bacteria (B. subtilis): No activity was detected
[7]
  Activity against Gram-negative bacteria (E. coli): No activity was detected
[8]
  Animal toxicity: No animal toxicity was apparent
[9]
  Efficacy in preventing C. albicans growth (kidney burden): demonstrated efficacy
[10]
  Efficacy in preventing C. auris growth (kidney burden): demonstrated efficacy
[11]
  Efficacy in preventing C. glabrata growth (kidney burden): demonstrated efficacy

## C[C@@H]1[C@H](O)[C@@H](C)/C=C/C=C/CC/C=C/C=C/C=C/C=C/[C@H](O[C@H]2O[C@H](C)[C@@H](O)[C@H](N)[C@@H]2O)C[C@@H]2O[C@](O)(C[C@@H](O)[C@H](O)CC[C@@H](O)C[C@@H](O)C[C@@H](O)CC(=O)O[C@H]1C)C[C@H](O)[C@H]2C(=O)O [nystatin A1, reference compound]
[1]
  MIC: 1 µM (≈ 0.926 µg/mL)
[3]
  solubility at 30 min: 300 µM (≈ 278 µg/mL)
